Assay results: patent publication US20150031674A1, “SERINE/THREONINE KINASE INHIBITORS” (GENENTECH, INC., priority 2013, published 2015)

Columns and labels:
[1] = biological target: human recombinant PAK1-KD protein (Homo sapiens, UniProt Q13153); assay: PAK1-KD (Kinase Domain) IC50 Zlyte Assay (FRET peptide substrate phosphorylation); conditions: Z'-LYTE, Biological Example 1
[2] = test system: group I PAKs in EBC1 cells (MEK1 phosphorylation at S298); assay: Cellular PAK IC50 Assay: MEK1 phosphorylation at S298 by HTRF; type: cell-based; conditions: Homo sapiens, EBC-1, 2 h treatment, media containing 0.1% FBS, phospho-MEK1 (S298) HTRF
Method: Cellular PAK IC50 Assay Protocol
Group I PAKs (PAK1-3) are activated upon binding to the Rho GTPases, Rac1 and Cdc42. Activated group I PAKs phosphorylate MEK1 at Serine 298 (S298), one of the two sites in the catalytic domain that is important for stable association between Raf and MEK1 and subsequent MAPK activation. The inhibition of group I PAKs in EBC1 cells is assessed by detecting changes in the level of MEK1 phosphorylation at S298 using homogenous time-resolved fluorescence (HTRF). Inhibitory activity was estimated by treating 2×10^4 EBC1 cells for 2 h with PAK inhibitors in media containing 0.1% FBS. Following inhibitor treatment, cells were lysed with 25 μL of 1× cellular kinase lysis buffer (Cisbio) containing 1× cellular kinase blocking reagent (Cisbio). Cellular lysis was carried out at 4° C. for 2 h with constant shaking before lysate (16 μL) was transferred to white 384-well ProxiPlates™ (Perkin Elmer). Anti-total MEK1 antibody labeled with Europium cryptate donor (1 ng/well) (Cell Signaling Technologies catalog number 2352) and anti-phospho MEK1 (S298) antibody labeled with d2 acceptor (Cell Signaling Technologies catalog number 9128) (10 ng/well) were prepared in 1× detection buffer (CisBio) and added to each well of the assay plate and allowed to incubate at RT overnight. The following day the fluorescence emission from each well was measured in EnVision® (Perkin Elmer) at an excitation of 330 nm and dual emission wavelengths of 615 nm and 665 nm. The signal in each well at 665 nm was multiplied by 10,000 and divided by the signal in the same well at 615 nm to obtain a ratio. Ratio values ([665·10,000]÷615) were plotted as a function of the concentration of compound to determine IC50 values.

Chain of human recombinant PAK1-KD protein (Q13153 270-521 limits assumed): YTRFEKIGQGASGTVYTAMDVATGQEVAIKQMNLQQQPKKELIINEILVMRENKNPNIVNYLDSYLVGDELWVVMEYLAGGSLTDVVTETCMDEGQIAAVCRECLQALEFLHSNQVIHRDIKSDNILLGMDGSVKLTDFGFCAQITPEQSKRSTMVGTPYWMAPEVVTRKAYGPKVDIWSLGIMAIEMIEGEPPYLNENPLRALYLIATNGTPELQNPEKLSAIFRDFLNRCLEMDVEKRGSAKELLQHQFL

Row | Ki [1] [µM] | IC50 [2] [µM] | Structure (SMILES)
1 | 0.0072 | 0.0756 | CCNc1ncc2cc(-c3ccc(-c4ncccc4C)cc3Cl)c(=O)n(C[C@H]3CC[C@H](N)CC3)c2n1 [Example I-16, 8-(((1r,4r)-4-Aminocyclohexyl)methyl)-6-(2-chloro-4-(3-methylpyridin-2-yl)phenyl)-2-(ethylamino)pyrido[2,3-d]pyrimidin-7(8H)-one]
2 | 0.0064 | 0.096 | CCNc1ncc2cc(-c3ccc(-c4cncc(C)n4)cc3Cl)c(=O)n(CCN3CCNCC3)c2n1 [Example I-4, 6-(2-Chloro-4-(6-methylpyrazin-2-yl)phenyl)-2-(ethylamino)-8-(2-(piperazin-1-yl)ethyl)pyrido[2,3-d]pyrimidin-7(8H)-one]
3 | 0.0186 | 0.426 | Cc1cncc(-c2ccc(-c3cc4cnc(N)nc4n(CC4OCC(N)CO4)c3=O)c(Cl)c2)n1 (stereo not drawn) [Example I-56, 2-Amino-8-[((2s,5s)-5-amino-1,3-dioxan-2-yl)methyl]-6-[2-chloro-4-(6-methylpyrazin-2-yl)phenyl]pyrido[2,3-d]pyrimidin-7-one and 2-amino-8-[((2r,5r)-5-amino-1,3-dioxan-2-yl)methyl]-6-[2-chloro-4-(6-methylpyrazin-2-yl)phenyl]pyrido[2,3-d]pyrimidin-7-one]
4 | 0.0174 | 0.289 | CCNc1ncc2cc(-c3ccc(-c4cccc(C)n4)cc3C)c(=O)n(CCCC(N)=O)c2n1 [Example I-70, 4-[2-(Ethylamino)-6-[2-methyl-4-(6-methyl-2-pyridyl)phenyl]-7-oxo-pyrido[2,3-d]pyrimidin-8-yl]butanamide]
5 | 0.0148 | 0.246 | CCNc1ncc2cc(-c3ccc(-c4cncc(C)n4)cc3Cl)c(=O)n(CCOC3CCCNC3)c2n1 (stereo not drawn) [Example I-14, 6-(2-Chloro-4-(6-methylpyrazin-2-yl)phenyl)-2-(ethylamino)-8-(2-(piperidin-3-yloxy)ethyl)pyrido[2,3-d]pyrimidin-7(8H)-one]
6 | 0.0028 | 0.0357 | CCNc1ncc2cc(-c3ccc(-c4cccc(C)n4)cc3Cl)c(=O)n(CCOCCN)c2n1 [Example I-64, 8-[2-(2-Aminoethoxy)ethyl]-6-[2-chloro-4-(6-methyl-2-pyridyl)phenyl]-2-(ethylamino)pyrido[2,3-d]pyrimidin-7-one]
7 | 0.0309 | 1.5 | CCNc1ncc2cc(-c3ccc(-c4cncc(C)n4)cc3Cl)c(=O)n(CC(=O)N3CCNCC3)c2n1 [Example I-8, 6-(2-Chloro-4-(6-methylpyrazin-2-yl)phenyl)-2-(ethylamino)-8-(2-oxo-2-(piperazin-1-yl)ethyl)pyrido[2,3-d]pyrimidin-7(8H)-one]
8 |  | 0.0468 | CCNc1ncc2cc(-c3ccc(-c4cccc(C)n4)cc3Cl)c(=O)n(C[C@H]3CC[C@H](N)CC3)c2n1 [Example I-15, 8-(((1r,4r)-4-Aminocyclohexyl)methyl)-6-(2-chloro-4-(6-methylpyridin-2-yl)phenyl)-2-(ethylamino)pyrido[2,3-d]pyrimidin-7(8H)-one]
9 | 0.0046 | 0.127 | CCNc1ncc2cc(-c3ccc(-c4cccc(C)n4)cc3C)c(=O)n(CCOC3CNC3)c2n1 [Example I-31, 8-(2-(azetidin-3-yloxy)ethyl)-2-(ethylamino)-6-(2-methyl-4-(6-methylpyridin-2-yl)phenyl)pyrido[2,3-d]pyrimidin-7(8H)-one]
10 |  | 0.146 | CCNc1ncc2cc(-c3ccc(-c4cncc(C)n4)cc3Cl)c(=O)n(CCCCN)c2n1 [Example I-2, 8-(4-Aminobutyl)-6-[2-chloro-4-(6-methylpyrazin-2-yl)phenyl]-2-(ethylamino)pyrido[2,3-d]pyrimidin-7-one]
11 | 0.00823 | 0.249 | CCNc1ncc2cc(-c3ccc(-c4cncc(C)n4)cc3Cl)c(=O)n(CCCN)c2n1 [Example I-1, 8-(3-Aminopropyl)-6-[2-chloro-4-(6-methylpyrazin-2-yl)phenyl]-2-(ethylamino)pyrido[2,3-d]pyrimidin-7-one]
12 |  | 0.147 | CCNc1ncc2cc(-c3ccc(-c4cncc(C)n4)cc3Cl)c(=O)n(C[C@H]3CC[C@H](N)CC3)c2n1 [Example I-5, 8-(((1r,4r)-4-aminocyclohexyl)methyl)-6-(2-chloro-4-(6-methylpyrazin-2-yl)phenyl)-2-(ethylamino)pyrido[2,3-d]pyrimidin-7(8H)-one]
13 |  | 0.17 | CCNc1ncc2cc(-c3ccc(-c4cncc(C)n4)cc3Cl)c(=O)n(CC3CCNCC3)c2n1 [Example I-6, 6-(2-Chloro-4-(6-methylpyrazin-2-yl)phenyl)-2-(ethylamino)-8-(piperidin-4-ylmethyl)pyrido[2,3-d]pyrimidin-7(8H)-one]
14 | 0.0208 |  | CCc1cc(-c2cccc(C)n2)ccc1-c1cc2cnc(NC3COC3)nc2n(C[C@H]2CNCCO2)c1=O [Example I-193, 6-[2-ethyl-4-(6-methyl-2-pyridyl)phenyl]-8-[[(2R)-morpholin-2-yl]methyl]-2-(oxetan-3-ylamino)pyrido[2,3-d]pyrimidin-7-one]

The next lines start with the compound.

Row | Structure (SMILES) | Ki [1] [µM] | IC50 [2] [µM]
15 | CCNc1ncc2cc(-c3ccc(-c4cncc(C)n4)cc3Cl)c(=O)n(CCOC3CCNC3)c2n1 (single isomer, unassigned) [Example I-52] | 0.0056 | 0.156
16 | CNc1ncc2cc(-c3ccc(-c4cncc(C)n4)cc3Cl)c(=O)n(CCCN)c2n1 [Example I-18, 8-(3-Aminopropyl)-6-[2-chloro-4-(6-methylpyrazin-2-yl)phenyl]-2-(methylamino)pyrido[2,3-d]pyrimidin-7-one] | 0.0137 | 0.508
17 | CCNc1ncc2cc(-c3ccc(-c4cncc(C)n4)cc3Cl)c(=O)n(CCOC3CNC3)c2n1 [Example I-11, 8-(2-(Azetidin-3-yloxy)ethyl)-6-(2-chloro-4-(6-methylpyrazin-2-yl)phenyl)-2-(ethylamino)pyrido[2,3-d]pyrimidin-7(8H)-one] | 0.00694 | 0.189
18 | Cc1cccc(-c2ccc(-c3cc4cnc(NCC(F)F)nc4n(CCN4CCNCC4)c3=O)c(Cl)c2)n1 [Example I-89, 6-[2-Chloro-4-(6-methyl-2-pyridyl)phenyl]-2-(2,2-difluoroethylamino)-8-(2-piperazin-1-ylethyl)pyrido[2,3-d]pyrimidin-7-one] | 0.0078 | 0.0577
19 | CCNc1ncc2cc(-c3ccc(-c4cncc(C)n4)cc3Cl)c(=O)n(CCOC3CCNC3)c2n1 (stereo not drawn) [Example I-13, 6-(2-Chloro-4-(6-methylpyrazin-2-yl)phenyl)-2-(ethylamino)-8-(2-(pyrrolidin-3-yloxy)ethyl)pyrido[2,3-d]pyrimidin-7(8H)-one] | 0.0058 | 0.18
20 | CCNc1ncc2cc(-c3ccc(-c4cncc(C)n4)cc3Cl)c(=O)n(CCCC(N)=O)c2n1 [Example I-3, 4-[6-[2-Chloro-4-(6-methylpyrazin-2-yl)phenyl]-2-(ethylamino)-7-oxo-pyrido[2,3-d]pyrimidin-8-yl]butanamide] | 0.0474 | 0.506
21 | CCNc1ncc2cc(-c3ccc(-c4cncc(C)n4)cc3Cl)c(=O)n(CC(C)OC3CNC3)c2n1 (single isomer, unassigned) [Example I-91, 8-[2-(Azetidin-3-yloxy)propyl]-6-[2-chloro-4-(6-methylpyrazin-2-yl)phenyl]-2-(ethylamino)pyrido[2,3-d]pyrimidin-7-one] | 0.0071 | 0.108
22 | Cc1cccc(-c2ccc(-c3cc4cnc(N)nc4n(CCC4CNCCO4)c3=O)c(Cl)c2)n1 (racemic) [Example I-127, 2-Amino-6-[2-chloro-4-(6-methyl-2-pyridyl)phenyl]-8-(2-morpholin-2-ylethyl)pyrido[2,3-d]pyrimidin-7-one] | 0.0038 | 0.0382
23 | CCNc1ncc2cc(-c3ccc(-c4cccc(C)n4)cc3Cl)c(=O)n(CCS(=O)(=O)C3CNC3)c2n1 [Example I-160, 8-[2-(azetidin-3-ylsulfonyl)ethyl]-6-[2-chloro-4-(6-methyl-2-pyridyl)phenyl]-2-(ethylamino)pyrido[2,3-d]pyrimidin-7-one] | 0.0103 | 
24 | CNC(=O)CCCn1c(=O)c(-c2ccc(-c3cccc(C)n3)cc2C)cc2cnc(NC3COC3)nc21 [Example I-87, N-methyl-4-[6-[2-methyl-4-(6-methyl-2-pyridyl)phenyl]-2-(oxetan-3-ylamino)-7-oxo-pyrido[2,3-d]pyrimidin-8-yl]butanamide] | 0.0305 | 
25 | CNc1ncc2cc(-c3ccc(-c4cncc(C)n4)cc3Cl)c(=O)n(CCC3CCNC3=O)c2n1 (single isomer, unassigned) [Example I-102, 6-[2-Chloro-4-(6-methylpyrazin-2-yl)phenyl]-2-(methylamino)-8-[2-(2-oxopyrrolidin-3-yl)ethyl]pyrido[2,3-d]pyrimidin-7-one] | 0.0381 | 
